Reference: patent US20230295119A1, “SUBSTITUTED PYRIDINES FOR THE TREATMENT OF INFLAMMATORY DISEASES” (GOSSAMER BIO SERVICES, INC., priority 2020, published 2023)

Legend:
TYK2 JH2 domain = TYK2 JH2 domain (Homo sapiens (Human), UniProt P29597); test: TYK2 JH2 NanoBRET assay; format: binding; conditions: Table 20, read-out: TYK2 IC50
Procedure: HEK293T cells were transfected with NanoLuc-TYK2 JH2 Fusion Vector (Promega, customized) using Trans-IT reagent (Mirus, #MIR2700) and incubated for overnight in 37° C. incubator. […] Add 85 µL of cell suspension into white, polypropylene, 96-well plates (Corning, #3600). 90 µL of cells were used for no tracer control samples. 5 µL of diluted NanoBRET K10 tracer (Promega, #CS1810C122) were added to cells to a final concentration of 0.5 µM. Test compounds were diluted into DMSO, and then phenol-free opti-MEM to 10X of final concentration. 10 µL of diluted compounds were added into each well. The cells were incubated with test compound and tracer for 2 hours. 3XNanoBRET® Nano-Glo® Substrate and Extracellular NanoLuc® Inhibitor mixture were prepared and 50 µL of the mixture were added into the wells and mixed. […] NanoBRET signal was determined by using the ratio of acceptor signal and donor signal.

human JAK1 = human JAK1 (Homo sapiens (Human), UniProt P23458); test: JAK1 TR-FRET kinase assay; format: biochemical; conditions: TR-FRET, JAK1 2.5 nM
Chain of human JAK1 (P23458 whole entry): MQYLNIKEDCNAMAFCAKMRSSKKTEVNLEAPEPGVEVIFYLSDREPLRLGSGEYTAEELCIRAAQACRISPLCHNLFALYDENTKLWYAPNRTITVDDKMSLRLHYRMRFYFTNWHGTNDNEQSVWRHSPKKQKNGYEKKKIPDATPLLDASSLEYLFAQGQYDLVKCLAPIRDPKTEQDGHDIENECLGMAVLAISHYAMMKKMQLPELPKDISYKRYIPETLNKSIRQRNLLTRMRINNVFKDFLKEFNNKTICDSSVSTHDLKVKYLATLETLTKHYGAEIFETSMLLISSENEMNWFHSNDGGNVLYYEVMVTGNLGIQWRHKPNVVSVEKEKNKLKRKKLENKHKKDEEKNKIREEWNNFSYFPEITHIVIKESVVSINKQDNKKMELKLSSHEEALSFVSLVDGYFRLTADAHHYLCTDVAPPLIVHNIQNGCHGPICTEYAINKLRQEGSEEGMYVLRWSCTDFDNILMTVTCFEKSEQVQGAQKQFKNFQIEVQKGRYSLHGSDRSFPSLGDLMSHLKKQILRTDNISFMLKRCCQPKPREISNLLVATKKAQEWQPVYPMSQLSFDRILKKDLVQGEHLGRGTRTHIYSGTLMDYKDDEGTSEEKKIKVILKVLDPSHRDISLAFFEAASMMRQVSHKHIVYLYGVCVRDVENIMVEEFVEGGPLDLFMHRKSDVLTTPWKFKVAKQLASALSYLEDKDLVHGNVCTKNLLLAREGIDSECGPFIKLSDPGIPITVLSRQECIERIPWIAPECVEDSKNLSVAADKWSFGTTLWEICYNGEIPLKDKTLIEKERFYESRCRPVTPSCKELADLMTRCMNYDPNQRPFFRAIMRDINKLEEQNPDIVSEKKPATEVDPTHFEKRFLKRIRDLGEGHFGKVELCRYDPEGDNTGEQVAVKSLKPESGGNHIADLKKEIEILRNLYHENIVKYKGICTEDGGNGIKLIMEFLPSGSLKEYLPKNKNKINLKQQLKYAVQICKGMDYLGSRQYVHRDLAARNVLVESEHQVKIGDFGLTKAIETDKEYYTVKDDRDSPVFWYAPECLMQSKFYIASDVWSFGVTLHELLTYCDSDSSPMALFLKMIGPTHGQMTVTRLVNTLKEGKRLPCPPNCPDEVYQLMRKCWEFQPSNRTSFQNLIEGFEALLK

human JAK2 = human JAK2 (Homo sapiens (Human), UniProt O60674); test: JAK2 TR-FRET kinase assay; format: biochemical; conditions: JAK2 0.025 nM
Chain of human JAK2 (O60674 whole entry): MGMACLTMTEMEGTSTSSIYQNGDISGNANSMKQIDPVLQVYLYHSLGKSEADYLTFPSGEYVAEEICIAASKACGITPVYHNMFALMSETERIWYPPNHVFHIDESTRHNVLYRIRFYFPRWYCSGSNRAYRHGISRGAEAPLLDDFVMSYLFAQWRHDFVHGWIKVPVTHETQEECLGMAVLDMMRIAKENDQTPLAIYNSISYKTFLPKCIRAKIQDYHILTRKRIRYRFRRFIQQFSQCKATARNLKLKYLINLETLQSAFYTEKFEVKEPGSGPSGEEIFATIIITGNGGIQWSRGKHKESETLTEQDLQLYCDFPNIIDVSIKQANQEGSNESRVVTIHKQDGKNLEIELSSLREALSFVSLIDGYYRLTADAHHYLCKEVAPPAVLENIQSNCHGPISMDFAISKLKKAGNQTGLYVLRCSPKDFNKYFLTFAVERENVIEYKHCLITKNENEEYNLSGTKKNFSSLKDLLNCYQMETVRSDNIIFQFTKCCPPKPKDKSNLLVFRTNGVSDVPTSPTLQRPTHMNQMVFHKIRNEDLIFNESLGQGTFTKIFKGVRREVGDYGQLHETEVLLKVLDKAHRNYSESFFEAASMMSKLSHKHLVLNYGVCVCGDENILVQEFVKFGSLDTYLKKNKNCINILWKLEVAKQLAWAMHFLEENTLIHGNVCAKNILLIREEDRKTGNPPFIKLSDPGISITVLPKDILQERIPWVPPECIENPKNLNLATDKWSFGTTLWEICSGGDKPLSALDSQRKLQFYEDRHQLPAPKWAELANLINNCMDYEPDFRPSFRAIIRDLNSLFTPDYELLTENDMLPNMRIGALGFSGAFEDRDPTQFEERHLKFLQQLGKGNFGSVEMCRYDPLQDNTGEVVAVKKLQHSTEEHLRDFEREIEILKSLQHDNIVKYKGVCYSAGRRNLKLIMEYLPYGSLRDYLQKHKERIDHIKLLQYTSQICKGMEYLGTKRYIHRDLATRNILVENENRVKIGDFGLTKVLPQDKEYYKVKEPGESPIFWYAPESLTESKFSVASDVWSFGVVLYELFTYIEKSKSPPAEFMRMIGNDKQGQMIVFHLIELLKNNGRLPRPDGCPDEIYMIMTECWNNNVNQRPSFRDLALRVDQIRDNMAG

human JAK3 = human JAK3 (Homo sapiens (Human), UniProt P52333); test: JAK3 TR-FRET kinase assay; format: biochemical; conditions: JAK3 0.0125 nM
Chain of human JAK3 (P52333 whole entry): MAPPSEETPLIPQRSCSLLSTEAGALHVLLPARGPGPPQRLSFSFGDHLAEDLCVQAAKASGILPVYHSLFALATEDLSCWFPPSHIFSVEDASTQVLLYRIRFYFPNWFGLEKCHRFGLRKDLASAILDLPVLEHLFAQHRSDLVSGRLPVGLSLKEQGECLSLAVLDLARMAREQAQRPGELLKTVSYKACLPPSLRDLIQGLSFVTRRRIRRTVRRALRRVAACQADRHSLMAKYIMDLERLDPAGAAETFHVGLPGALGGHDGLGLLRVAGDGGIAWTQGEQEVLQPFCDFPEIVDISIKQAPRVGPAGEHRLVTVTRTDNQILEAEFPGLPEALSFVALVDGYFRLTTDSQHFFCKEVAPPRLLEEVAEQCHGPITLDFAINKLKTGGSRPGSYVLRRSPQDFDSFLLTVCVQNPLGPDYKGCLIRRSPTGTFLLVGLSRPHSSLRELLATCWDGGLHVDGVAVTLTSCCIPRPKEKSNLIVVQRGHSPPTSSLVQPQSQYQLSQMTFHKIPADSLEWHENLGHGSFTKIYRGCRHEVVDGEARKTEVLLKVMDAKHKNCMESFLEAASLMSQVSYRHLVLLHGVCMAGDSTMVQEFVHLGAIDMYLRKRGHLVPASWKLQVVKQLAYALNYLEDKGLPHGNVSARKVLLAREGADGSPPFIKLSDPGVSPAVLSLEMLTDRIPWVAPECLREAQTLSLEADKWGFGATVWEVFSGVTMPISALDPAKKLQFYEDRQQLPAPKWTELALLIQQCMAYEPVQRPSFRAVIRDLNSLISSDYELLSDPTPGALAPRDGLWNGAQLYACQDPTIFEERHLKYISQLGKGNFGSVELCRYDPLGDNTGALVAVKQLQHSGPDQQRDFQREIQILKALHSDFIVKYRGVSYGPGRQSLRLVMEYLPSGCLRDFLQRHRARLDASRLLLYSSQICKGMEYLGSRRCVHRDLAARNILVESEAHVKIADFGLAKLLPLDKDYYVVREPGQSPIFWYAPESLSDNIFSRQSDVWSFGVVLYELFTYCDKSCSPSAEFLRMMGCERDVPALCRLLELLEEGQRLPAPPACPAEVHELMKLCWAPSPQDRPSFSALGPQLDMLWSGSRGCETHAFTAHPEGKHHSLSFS

Chain of TYK2 JH2 domain (P29597 589-875): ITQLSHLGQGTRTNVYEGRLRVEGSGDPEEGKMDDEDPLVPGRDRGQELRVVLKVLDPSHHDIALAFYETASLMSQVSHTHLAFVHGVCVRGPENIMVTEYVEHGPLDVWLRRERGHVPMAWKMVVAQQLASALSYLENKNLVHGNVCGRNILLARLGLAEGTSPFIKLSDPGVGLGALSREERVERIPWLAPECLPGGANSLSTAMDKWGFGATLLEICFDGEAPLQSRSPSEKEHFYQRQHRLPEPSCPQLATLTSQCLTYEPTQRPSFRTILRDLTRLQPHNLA

IC50 (TYK2 JH2 domain)	IC50 (human JAK1)	IC50 (human JAK2)	IC50 (human JAK3)	SMILES
5 to 50 nM	≥ 500 nM	≥ 500 nM	50 to 500 nM	CCC(=O)c1cnc(Nc2ccc([C@@H](C)N3C[C@@H](O)[C@H](O)C3)cn2)cc1Nc1cccc(-c2ncn(C)n2)c1OC [Compound 9QQ]
5 to 50 nM	≥ 500 nM	≥ 500 nM	≥ 500 nM	CCC(=O)c1cnc(Nc2ncc(CNC)cc2F)cc1Nc1cccc(-c2ncn(C)n2)c1OC [Compound 9EEEE]
5 to 50 nM	≥ 500 nM	≥ 500 nM	≥ 500 nM	COc1c(-c2ncn(C)n2)ccnc1Nc1cc(Nc2ccc(-n3ccnc3)cn2)ncc1C(=O)C1CC1 [Compound 15R]
≥ 500 nM	≥ 500 nM	≥ 500 nM	≥ 500 nM	CCC(=O)c1cnc(NC(=O)[C@@H]2C[C@H]2C(N)=O)cc1Nc1cccc(-c2ncn(C)n2)c1OC [Compound 22E]
5 to 50 nM	≥ 500 nM	≥ 500 nM	≥ 500 nM	CCC(=O)c1cnc(Nc2ccnc(O[C@H]3CCN(C)C3)n2)cc1Nc1cccc(-c2ncn(C)n2)c1OC [Compound 18KK]
5 to 50 nM	≥ 500 nM	≥ 500 nM	≥ 500 nM	CCC(=O)c1cnc(Nc2cnc(O[C@H]3CN[C@@H](C(F)F)C3)cn2)cc1Nc1cccc(-c2ncn(C)n2)c1OC [Compound 18000]
5 to 50 nM	≥ 500 nM	≥ 500 nM	≥ 500 nM	CCC(=O)c1cnc(Nc2ccnc(O[C@@H]3CCN(C)C3)n2)cc1Nc1cccc(-c2ncn(C)n2)c1OC [Compound 18LL]
< 5 nM	≥ 500 nM	50 to 500 nM	≥ 500 nM	CCC(=O)c1cnc(Nc2ccc(C(NC)C(F)(F)F)cn2)cc1Nc1cccc(-c2ncn(C)n2)c1OC (stereo not drawn) [Compound 9S]
≥ 500 nM	≥ 500 nM	≥ 500 nM	≥ 500 nM	CCC(=O)c1cnc(Nc2ccc(S(C)(=N)=O)cn2)cc1Nc1nccc(-c2ncn(C)n2)c1OC (stereo not drawn) [Compound 13L]
< 5 nM	≥ 500 nM	≥ 500 nM	≥ 500 nM	CCC(=O)c1cnc(Nc2ccc(CNC)cn2)cc1Nc1cccc(-c2ncn(C)n2)c1OC [Compound 9C]
5 to 50 nM	≥ 500 nM	≥ 500 nM	≥ 500 nM	CCC(=O)c1cnc(Nc2ccc(C(C)NC)nn2)cc1Nc1cccc(-c2ncn(C)n2)c1OC (stereo not drawn) [Compound 9JJJ]
5 to 50 nM	≥ 500 nM	≥ 500 nM	≥ 500 nM	CCC(=O)c1cnc(Nc2ccn([C@H]3C[C@@H](OC)C3)n2)cc1Nc1cccc(-c2ncn(C)n2)c1OC [Compound 21A, 1-(4-((2-methoxy-3-(1-methyl-1H-1,2,4-triazol-3-yl)phenyl)amino)-6-((1-(3-methoxycyclobutyl)-1H-pyrazol-3-yl)amino)pyridin-3-yl)propan-1-one]
< 5 nM	≥ 500 nM	≥ 500 nM	50 to 500 nM	CCC(=O)c1cnc(Nc2cc(CN3CCCCC3)ccn2)cc1Nc1cccc(-c2ncn(C)n2)c1OC [Compound 9JJJJ]
< 5 nM	≥ 500 nM	≥ 500 nM	≥ 500 nM	CCC(=O)c1cnc(Nc2cccc(C(=O)NC)n2)cc1Nc1cccc(-c2ncn(C)n2)c1OC [Compound 8K]
< 5 nM	≥ 500 nM	≥ 500 nM	≥ 500 nM	COc1c(Nc2cc(Nc3ccc(OCCCO)cn3)ncc2C(=O)C2CC2)cccc1-c1ncn(C)n1 [Compound 18C]
50 to 500 nM	≥ 500 nM	≥ 500 nM	≥ 500 nM	CCC(=O)c1cnc(Nc2ccc(CCN3CCCC3)nn2)cc1Nc1cccc(-c2ncn(C)n2)c1OC [Compound 11E]

IC50 (TYK2 JH2 domain)	IC50 (human JAK1)	IC50 (human JAK2)	IC50 (human JAK3)	SMILES
≥ 500 nM	≥ 500 nM	≥ 500 nM	≥ 500 nM	CCC(=O)c1cnc(NC(=O)C2CC2)cc1Nc1cc(C#N)cc(-c2ncn(C)n2)c1OC [Compound 25B]
< 5 nM	≥ 500 nM	50 to 500 nM	50 to 500 nM	CCC(=O)c1cnc(Nc2ccc([C@@H](C)N3CC[C@@H](O)C3)cn2)cc1Nc1cccc(-c2ncn(C)n2)c1OC [Compound 9OO]
< 5 nM	≥ 500 nM	≥ 500 nM	≥ 500 nM	CCC(=O)c1cnc(Nc2cc(-c3ncn(C)n3)ccn2)cc1Nc1cccc(-c2ncn(C)n2)c1OC [Compound 15F]
< 5 nM	≥ 500 nM	≥ 500 nM	≥ 500 nM	CCC(=O)c1cnc(Nc2ccc(S(C)(=O)=O)cn2)cc1Nc1cccc(-c2ncn(C)n2)c1OC [Compound 12A, 1-(4-((2-methoxy-3-(1-methyl-1H-1,2,4-triazol-3-yl)phenyl)amino)-6-((5-(methylsulfonyl)pyridin-2-yl)amino)pyridin-3-yl)propan-1-one]
< 5 nM	≥ 500 nM	≥ 500 nM	≥ 500 nM	CCC(=O)c1cnc(Nc2ccc([C@H](C)N3CC4(COC4)C3)cn2)cc1Nc1cccc(-c2ncn(C)n2)c1OC [Compound 9AAA]
< 5 nM	≥ 500 nM	≥ 500 nM	≥ 500 nM	CCC(=O)c1cnc(Nc2cnc(CNC)cn2)cc1Nc1cccc(-c2ncn(C)n2)c1OC [Compound 9RRR]
5 to 50 nM	≥ 500 nM	≥ 500 nM	≥ 500 nM	CCC(=O)c1cnc(Nc2cnc(CN(C)CC(F)(F)F)cn2)cc1Nc1cccc(-c2ncn(C)n2)c1OC [Compound 9XXX]
≥ 500 nM	≥ 500 nM	≥ 500 nM	≥ 500 nM	CCC(=O)c1cnc(Nc2cnc(O[C@@H]3CCN(C)C3)cn2)cc1Nc1nccc(-c2ncn(C)n2)c1OC [Compound 18CCC]
5 to 50 nM	≥ 500 nM	≥ 500 nM	≥ 500 nM	CCC(=O)c1cnc(Nc2cccc(CN3CCCC3)n2)cc1Nc1cccc(-c2ncn(C)n2)c1OC [Compound 9FFFF]
50 to 500 nM	≥ 500 nM	50 to 500 nM	50 to 500 nM	CCC(=O)c1cnc(Nc2ccn(CC3(CO)COC3)n2)cc1Nc1cccc(-c2ncn(C)n2)c1OC [Compound 21U]
5 to 50 nM	≥ 500 nM	≥ 500 nM	≥ 500 nM	COc1c(Nc2cc(Nc3ccc(OCCN(C)C)cn3)ncc2C(=O)C2CC2)cccc1-c1ncn(C)n1 [Compound 18T]
< 5 nM	≥ 500 nM	≥ 500 nM	≥ 500 nM	CCC(=O)c1cnc(Nc2ccc(OCCO)nn2)cc1Nc1cccc(-c2ncn(C)n2)c1OC [Compound 18M]
5 to 50 nM	≥ 500 nM	≥ 500 nM	≥ 500 nM	CCC(=O)c1cnc(Nc2ncc(CN3CCCC3)cc2F)cc1Nc1cccc(-c2ncn(C)n2)c1OC [Compound 9CCCC]
< 5 nM	≥ 500 nM	≥ 500 nM	≥ 500 nM	CCC(=O)c1cnc(Nc2cccc(CN3CCOCC3)n2)cc1Nc1cccc(-c2ncn(C)n2)c1OC [Compound 9HHHH]
< 5 nM	≥ 500 nM	≥ 500 nM	≥ 500 nM	CCC(=O)c1cnc(Nc2ccc(C3(S(C)(=O)=O)CC3)nn2)cc1Nc1cccc(-c2ncn(C)n2)c1OC [Compound 13V]
5 to 50 nM	≥ 500 nM	≥ 500 nM	≥ 500 nM	CCC(=O)c1cnc(Nc2ccc(OC3CN(C)C3)nn2)cc1Nc1cccc(-c2ncn(C)n2)c1OC [Compound 18DDDD]

SMILES	IC50 (TYK2 JH2 domain)	IC50 (human JAK1)	IC50 (human JAK2)	IC50 (human JAK3)
CCC(=O)c1cnc(Nc2ccc(CS(C)(=O)=O)cn2)cc1Nc1cccc(-c2ncn(C)n2)c1OC [Compound 13A, 1-(4-((2-methoxy-3-(1-methyl-1H-1,2,4-triazol-3-yl)phenyl)amino)-6-((5-((methylsulfonyl)methyl)pyridin-2-yl)amino)pyridin-3-yl)propan-1-one]	< 5 nM	≥ 500 nM	50 to 500 nM	50 to 500 nM
CCC(=O)c1cnc(Nc2ccc(S(C)(=N)=O)cn2)cc1Nc1cccc(-c2ncn(C)n2)c1OC (stereo not drawn) [Compound 14A, imino(6-((4-((2-methoxy-3-(1-methyl-1H-1,2,4-triazol-3-yl)phenyl)amino)-5-propionylpyridin-2-yl)amino)pyridin-3-yl)(methyl)-16-sulfanone]	< 5 nM	≥ 500 nM	≥ 500 nM	≥ 500 nM
CCC(=O)c1cnc(NC2=NN(C(=O)C3CC3)CC2)cc1Nc1cccc(-c2ncn(C)n2)c1OC [Compound 26A, 1-(6-((1-(cyclopropanecarbonyl)-4,5-dihydro-1H-pyrazol-3-yl)amino)-4-((2-methoxy-3-(1-methyl-1H-1,2,4-triazol-3-yl)phenyl)amino)pyridin-3-yl)propan-1-one]	5 to 50 nM	≥ 500 nM	≥ 500 nM	≥ 500 nM
CCC(=O)c1cnc(NC(=O)CC2CCN(C)CC2)cc1Nc1cccc(-c2ncn(C)n2)c1OC [Compound 23A, N-(4-((2-methoxy-3-(1-methyl-1H-1,2,4-triazol-3-yl)phenyl)amino)-5-propionylpyridin-2-yl)-2-(1-methylpiperidin-4-yl)acetamide]	5 to 50 nM	≥ 500 nM	≥ 500 nM	≥ 500 nM
